Like-named read-outs stand apart in the source and are kept apart here.
Columns and labels:
[1] = test system: HeLa cells; assay: cells; conditions: for viability at 500 µM: 65 h; for HeLa Cells Alamar Blue: Supplementary Table 1
Method in brief: (§1)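 Viability by Alamar Blue (5 h) after ~65 h drug treatment; seeding density 2 × 10^4 cells/well in DMEM supplemented with 10% FCS and 2 mM L-Glutamine.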

[2] = molecular target: T1, TbINO1 (Trypanosoma brucei brucei, UniProt Q5QQ46); assay: biochemical; type: binding
T1 sequence (Q5QQ46 1-528): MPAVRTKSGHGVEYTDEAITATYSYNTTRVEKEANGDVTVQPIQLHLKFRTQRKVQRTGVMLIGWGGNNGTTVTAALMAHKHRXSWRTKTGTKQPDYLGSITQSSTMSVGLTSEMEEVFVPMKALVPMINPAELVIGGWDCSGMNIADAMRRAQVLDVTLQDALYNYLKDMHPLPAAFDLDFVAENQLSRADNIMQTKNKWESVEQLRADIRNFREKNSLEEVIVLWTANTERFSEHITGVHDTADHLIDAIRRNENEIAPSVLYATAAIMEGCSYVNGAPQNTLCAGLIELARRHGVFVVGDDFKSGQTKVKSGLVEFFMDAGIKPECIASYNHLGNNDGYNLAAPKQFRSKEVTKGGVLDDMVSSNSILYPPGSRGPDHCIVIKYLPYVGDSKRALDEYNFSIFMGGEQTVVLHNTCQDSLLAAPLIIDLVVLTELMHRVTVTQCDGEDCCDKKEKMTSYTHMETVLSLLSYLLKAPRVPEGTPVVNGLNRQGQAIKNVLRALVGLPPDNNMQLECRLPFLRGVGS

[3] = test system: A549 cells; assay: Cytotoxicity against A549 cells, Alamar Blue; type: cell-based; conditions: Supplementary Table 1, compound 0.5 mM, percentage of controls (n=1); for viability at 500 µM: Homo sapiens, A549, 65 h
Method in brief: as §1

[4] = Homo sapiens, HeLa, read-out: HeLa Cells Alamar Blue
[5] = read-out: Tb Ino1 Tm Shift [˚C]
[6] = Supplementary Table 1, compound 1mM, mean ± SD from Boltzman curve fitting, read-out: Tb Ino1 Tm Shift [˚C]
[7] = Homo sapiens, HeLa, read-out: HeLa Cells Alamar Blue (% survival)
[8] = compound 0.5 mM, percentage of controls, mean ± SD (n=3) or SE (n=2)
[9] = Supplementary Table 1, compound 1mM, mean ± SD from Boltzman curve fitting
[10] = Homo sapiens, HeLa, read-out: HeLa Cells Alamar Blue, Supplementary Table 1, compound 0.5 mM, percentage of controls, mean ± SD (n=3) or SE (n=2)

SMILES: NC(=S)c1ccno1 [compound 86, isoxazole‐5‐carbothioamide]
- viability at 500 µM [1, 4]: 102 ± 3.4%
- ΔTm at 1000 µM [2, 5]: 0.94 ± 0.08 °C
- viability at 500 µM [3]: 105%

SMILES: ON=C1CCCCCN1 [compound 87, azepan‐2‐one oxime]
- viability at 500 µM [1, 4]: 92.3 ± 17.4%
- ΔTm at 1000 µM [2, 5]: 0.52 ± 0.06 °C
- viability at 500 µM [3]: 115%

SMILES: Nc1ccc(F)cc1F [compound 88, 2,4‐difluoroaniline]
- viability at 500 µM [1, 4]: 87.6 ± 10.6%
- ΔTm at 1000 µM [2, 5]: 1.11 ± 0.07 °C
- viability at 500 µM [3]: 132%

SMILES: Nc1cc(F)cc(F)c1 [compound 89, 3,5‐difluoroaniline]
- viability at 500 µM [1, 4]: 104 ± 10.5%
- ΔTm at 1000 µM [2, 5]: 0.3 ± 0.07 °C
- viability at 500 µM [3]: 132%

SMILES: O=C(O)C1CCNCC1 [compound 90, piperidine‐4‐carboxylic acid]
- viability at 500 µM [1, 4]: 106 ± 2%
- ΔTm at 1000 µM [2, 5]: 0.5 ± 0.06 °C
- viability at 500 µM [3]: 132%

SMILES: O=C(O)C1CCCCO1 (stereo not shown) [compound 93, tetrahydropyran‐2‐carboxylic acid]
- viability at 500 µM [1, 4]: 97.5 ± 2.4%
- ΔTm at 1000 µM [2, 5]: 0.55 ± 0.06 °C
- viability at 500 µM [3]: 107%

SMILES: Cc1cccc(C)c1C#N [compound 94, 2,6‐dimethylbenzonitrile]
- viability at 500 µM [1, 4]: 96.4 ± 13.9%
- ΔTm at 1000 µM [2, 6]: 1.3 ± 0.06 °C
- viability at 500 µM [3]: 114%

SMILES: C#Cc1ccc(OC)cc1 [compound 96, 1‐eth‐1‐ynyl‐4‐methoxybenzene]
- viability at 500 µM [1, 4]: 94 ± 4.9%
- ΔTm at 1000 µM [2, 5]: 0.48 ± 0.06 °C
- viability at 500 µM [3]: 111%

SMILES: Cc1ccc(C#N)c(N)c1 [compound 97, 2-amino-4-methylbenzonitrile]
- viability at 500 µM [1, 4]: 81.4 ± 7.4%
- viability at 500 µM [1, 7]: 81.4 ± 7.4%
- ΔTm at 1000 µM ([2]; read-out: TbIno1 Tm shift [°C]): 1.58 ± 0.07 °C
- viability at 500 µM [3]: 96.2%

SMILES: N#CCc1ccc(O)cc1 [compound 98, 2‐(4‐hydroxyphenyl)acetonitrile]
- viability at 500 µM [1, 4]: 92.9 ± 6.5%
- ΔTm at 1000 µM [2, 6]: 0.27 ± 0.05 °C
- viability at 500 µM [3]: 115%

SMILES: O=C1Cc2ccccc2N1 [compound 99, indolin-2-one]
- viability at 500 µM [1, 4]: 66.6 ± 18.7%
- viability at 500 µM [1, 7]: 66.6 ± 18.7%
- CC50 ([1]; Homo sapiens, HeLa, read-out: HeLa ED50): > 2000 µM
- ΔTm at 1000 µM ([2]; read-out: TbIno1 Tm shift [°C]): 2.04 ± 0.07 °C
- viability at 500 µM [3]: 229%

SMILES: Nc1ccc2occc2c1 [compound 100, 1‐benzofuran‐5‐amine]
- viability at 500 µM [1, 4]: 80.2 ± 12.5%
- ΔTm at 1000 µM [2, 5]: 0.78 ± 0.05 °C
- viability at 500 µM [3]: 110%

SMILES: Cc1nc(N)ccc1C#N [compound 102, 6‐amino‐2‐methylnicotinonitrile]
- viability at 500 µM [1, 4]: 69.4 ± 12.4%
- ΔTm at 1000 µM [2, 5]: 0.27 ± 0.06 °C
- viability at 500 µM [3]: 76.1%

SMILES: O=C(O)C1NCCS1 (stereo not shown) [compound 103, 1,3-thiazolane-2-carboxylic acid]
- viability at 500 µM [1, 4]: 103 ± 6.4%
- viability at 500 µM [1, 7]: 103 ± 6.4%
- ΔTm at 1000 µM ([2]; read-out: TbIno1 Tm shift [°C]): 2.63 ± 0.08 °C
- viability at 500 µM [3]: 107%

SMILES: NC1Cc2ccccc2C1 [compound 104, indan‐2‐amine]
- viability at 500 µM [1, 4]: 70 ± 18.5%
- ΔTm at 1000 µM [2, 6]: 0.89 ± 0.05 °C
- viability at 500 µM [3]: 123%

SMILES: COc1ccc(C#N)cn1 [compound 108, 6‐methoxynicotinonitrile]
- viability at 500 µM [1, 4]: 95 ± 10.2%
- ΔTm at 1000 µM [2, 5]: 0.38 ± 0.07 °C
- viability at 500 µM [3]: 125%

SMILES: Cc1ccc(C#N)c(=O)[nH]1 [compound 109, 6‐methyl‐2‐oxo‐1,2‐dihydropyridine‐3‐carbonitrile]
- HeLa Cells Alamar Blue [1, 8]: 97.4 ± 2 percentage of controls
- Tb Ino1 Tm Shift [˚C] [2, 9]: 0.22 ± 0.06 °C
- A549 Cells Alamar Blue [3]: 118.7 percentage of controls

SMILES: c1ccc2c(c1)CCOC2 [compound 110, 3,4‐dihydro‐1H‐benzo[c]pyran]
- viability at 500 µM [1, 4]: 88.7 ± 19.2%
- ΔTm at 1000 µM [2, 5]: 0.34 ± 0.06 °C
- viability at 500 µM [3]: 114%

SMILES: c1cnc2c(n1)CCCC2 [compound 111, 5,6,7,8‐tetrahydroquinoxaline]
- viability at 500 µM [1, 4]: 95.6 ± 0.8%
- ΔTm at 1000 µM [2, 5]: 0.16 ± 0.06 °C
- viability at 500 µM [3]: 96.1%

SMILES: Oc1noc2ccccc12 [compound 112, benzo[d]isoxazol‐3‐ol]
- viability at 500 µM [1, 10]: 83 ± 11.2%
- ΔTm at 1000 µM [2, 5]: 0.23 ± 0.06 °C
- viability at 500 µM [3]: 76.7%

SMILES: Cc1cccc(CN)c1C [compound 113, 2,3‐dimethylbenzylamine]
- viability at 500 µM [1, 4]: 89.3 ± 15.9%
- ΔTm at 1000 µM [2, 5]: 0.12 ± 0.07 °C
- viability at 500 µM [3]: 83.6%

SMILES: N#Cc1c(N)cccc1F [compound 115, 2‐amino‐6‐fluorobenzonitrile]
- viability at 500 µM [1, 4]: 71.3 ± 0.6%
- ΔTm at 1000 µM [2, 5]: 0.17 ± 0.07 °C
- viability at 500 µM [3]: 77.4%

SMILES: Cc1ccc2c(c1)OCO2 [compound 116, 5‐methyl‐1,3‐benzodioxole]
- viability at 500 µM [1, 4]: 82.7 ± 15.6%
- ΔTm at 1000 µM [2, 6]: 0.38 ± 0.06 °C
- viability at 500 µM [3]: 109%

SMILES: CC(=O)c1nccnc1C [compound 117, 1‐(3‐methylpyrazin‐2‐yl)ethan‐1‐one]
- viability at 500 µM [1, 4]: 87.6 ± 11.3%
- ΔTm at 1000 µM [2, 5]: 0.4 ± 0.06 °C
- viability at 500 µM [3]: 88.3%

SMILES: c1cnc2c(c1)OCCN2 [compound 118, 3,4‐dihydro‐2H‐pyrido[3,2‐b][1,4]oxazine]
- viability at 500 µM [1, 4]: 84.1 ± 18%
- ΔTm at 1000 µM [2, 5]: 0.46 ± 0.06 °C
- viability at 500 µM [3]: 92.3%

SMILES: N#Cc1ccc(O)cc1F [compound 120, 2‐fluoro‐4‐hydroxybenzonitrile]
- viability at 500 µM [1, 4]: 18.6 ± 10.7%
- ΔTm at 1000 µM [2, 5]: 0.41 ± 0.06 °C
- viability at 500 µM [3]: 72.6%

SMILES: Nc1ccc2c(c1)OCO2 [compound 121, 1,3‐benzodioxol‐5‐amine]
- viability at 500 µM [1, 4]: 76.7 ± 16%
- ΔTm at 1000 µM [2, 5]: 0.72 ± 0.07 °C
- viability at 500 µM [3]: 110%

SMILES: NC(=S)c1ccccc1 [compound 123, benzene‐1‐carbothioamide]
- viability at 500 µM [1, 4]: 89 ± 10.9%
- ΔTm at 1000 µM [2, 5]: 0.42 ± 0.06 °C
- viability at 500 µM [3]: 87.9%

SMILES: Oc1ccc2c(c1)OCO2 [compound 124, 1,3-benzodioxol-5-ol]
- viability at 500 µM [1, 4]: 39.7 ± 12.5%
- viability at 500 µM [1, 7]: 39.7 ± 12.5%
- ΔTm at 1000 µM ([2]; compound 1 mM, mean ± SD (n = 3), read-out: TbIno1 Tm shift [°C]): 2.1 ± 0.04 °C
- viability at 500 µM [3]: 53.6%

SMILES: Cc1csc(CC#N)n1 [compound 126, 2-(4-methyl-1,3-thiazol-2-yl)acetonitrile]
- viability at 500 µM [1, 4]: 69.7 ± 10.3%
- viability at 500 µM [1, 7]: 69.7 ± 10.3%
- ΔTm at 1000 µM ([2]; read-out: TbIno1 Tm shift [°C]): 2.1 ± 0.09 °C
- viability at 500 µM [3]: 98.4%

SMILES: Cc1nn(C)c(C)c1CN [compound 128, (1,3,5‐trimethyl‐1H‐pyrazol‐4‐yl)methylamine]
- HeLa Cells Alamar Blue [1, 8]: 80.3 ± 7 percentage of controls
- Tb Ino1 Tm Shift [˚C] [2, 9]: 0.22 ± 0.06 °C
- A549 Cells Alamar Blue [3]: 87.7 percentage of controls

SMILES: O=C(O)c1ccccc1F [compound 129, 2‐fluorobenzoic acid]
- viability at 500 µM [1, 10]: 78.6 ± 14.2%
- ΔTm at 1000 µM [2, 5]: 0.13 ± 0.07 °C
- viability at 500 µM [3]: 126%

SMILES: Cc1cc(C(=O)O)c(C)o1 [compound 130, 2,5‐dimethyl‐3‐furoic acid]
- viability at 500 µM [1, 4]: 84.7 ± 0.7%
- ΔTm at 1000 µM [2, 5]: 0.62 ± 0.08 °C
- viability at 500 µM [3]: 121%

SMILES: O=C(O)CCc1ccco1 [compound 131, 3‐(2‐furyl)propanoic acid]
- viability at 500 µM [1, 4]: 69.8 ± 21.4%
- ΔTm at 1000 µM [2, 5]: 1.22 ± 0.09 °C
- viability at 500 µM [3]: 98.1%

SMILES: COC(=O)c1ccoc1C [compound 132, methyl 2-methyl-3-furoate]
- viability at 500 µM [1, 4]: 71.3 ± 11.3%
- viability at 500 µM [1, 7]: 71.3 ± 11.3%
- ΔTm at 1000 µM ([2]; read-out: TbIno1 Tm shift [°C]): 1.64 ± 0.09 °C
- viability at 500 µM [3]: 100%

SMILES: CC(=O)c1sccc1N [compound 133, 1‐(3‐amino‐2‐thienyl)ethan‐1‐one]
- viability at 500 µM [1, 4]: 83 ± 12.2%
- ΔTm at 1000 µM [2, 5]: 1.24 ± 0.07 °C
- viability at 500 µM [3]: 100%

Source: publication PMC3199943, “Screening the MayBridge Rule of 3 Fragment Library for Compounds That Interact with the Trypanosoma brucei myo-Inositol-3-Phosphate Synthase and/or Show Trypanocidal Activity” (Molecular Biology International, 2011)
